Measurements taken from a melting point compilation (Tetko et al.).

melting point [°C] | SMILES
232 to 234 | Cc1nccn1-c1ccccc1C(=O)O
123 to 125 | C[C@@H](NC(=O)c1ccccc1)c1ccccc1
212 to 213 | O=C(Nc1nnc(-c2ccc(Cl)cc2)o1)c1ccc(Cl)cc1Cl
150 | O=C(c1ccc(Cl)cc1)c1noc(-c2cccc3ccccc23)c1S(=O)(=O)c1ccccc1
119 | O=C1OC(C(Cl)(Cl)Cl)Cc2ccccc21 (centres undefined)
151 to 156 | COc1ccc(C2(C(=O)O)CCCC2)cc1
181 | O=C(O)c1ncoc1-c1ccccc1
253 | Sc1nc(-c2ccccc2)c(-c2ccccc2)o1
183 to 185 | Cc1cc(Oc2ccc(C(N)=NO)cc2[N+](=O)[O-])cc(C)c1Cl
198 | O=Cc1ccc(OCC(=O)O)cc1
74 to 78 | COC(=O)C1(C)CCC(C(=O)O)C1(C)C (centres undefined)
18 | CCc1ccccc1O
97 to 99 | Nc1ccc(S(=O)(=O)NCCO)cc1
64.5 | CCOC(=O)N1c2ccccc2C=CC1OCC (centres undefined)
167 to 171 | CN(C)c1ccc(N=Nc2ccc(N=C=S)cc2)cc1
132 | O=C1C(=O)c2ccccc2CCc2ccccc21
166 to 167 | Cc1cc(C)nc(NN)n1
-32 | CCCCCCCCC=CCCCCCCCC(=O)OCC
166 to 170 | Cc1ccc(C2(C(=O)O)CCCCC2)cc1
101 to 104 | CN(C(=S)Cl)c1ccc(Br)cc1
125 to 126 | COc1ccc(C(=O)c2ccccc2Cl)cc1OC
52 to 57 | ClCc1ccccc1Cn1cncn1
111 to 116 | OCC(Br)=C(Br)CO

melting point [°C] | SMILES
210 | C=CCN1C(=O)C(CC(C)C)NC1=S (centres undefined)
156 to 158 | COc1ccc(Cl)c(OC)c1C(N)=O
72 to 75 | Cc1oc(-c2ccccc2)nc1CCO
164 | O=[N+]([O-])c1ccccc1/C(O)=C(/C(=N\O)c1ccccc1)c1ccccc1
98 | COc1cc(C(c2ccc(C)o2)c2ccc(C)o2)c([N+](=O)[O-])cc1OC
169 | O=[N+]([O-])c1ccccc1OCCOc1ccccc1[N+](=O)[O-]
186 | COc1ccc(-c2ccc(S(=O)(=O)NCC(=O)O)cc2)cc1
292 to 294 | O=C(C=Cc1ccc(C=CC(=O)Nc2ccccc2)cc1)Nc1ccccc1
177 to 179 | Nc1nnc(-c2ccccc2)c(-c2ccccc2)n1
164 | CC12CCC(CC/C1=N\O)C2(C)C (centres undefined)
78 | CC(C)c1ccc(O)c(O)c1
128 | Clc1ccc2c(c1)Cc1cc(Cl)ccc1-2
144 | CCC(C(=O)Nc1ccc(C)cc1)C1CCC(OC)CC1 (centres undefined)
265 | Cn1c(=O)c(C2=NNC(=O)C2=Cc2cccc(Cl)c2)c(O)c2ccccc21
-108 | CC#CC(C)CC (centres undefined)
55 | CC(=O)Oc1cccc2cccnc12
97 | O=C1Cc2ccc3ccccc3c21
-18 | BrCCC(Br)CBr (centres undefined)
36 | COc1ccc(C(F)(F)F)cc1CBr
143 | Cc1cc(S(=O)(=O)c2ccccc2)ccc1NS(=O)(=O)C(F)(F)F
146 to 148 | CCOC(=O)c1c(C)oc(NC(=O)Nc2ccc(F)cc2)c1C(=O)OCC
43 | CC1CCC(C(C)C)C(OC(=O)C(Cc2ccccc2)Cc2ccccc2)C1 (centres undefined)
39 | Cc1cc(Cl)c(O)c(Cl)c1

melting point [°C] | SMILES
204 | COc1cc(S(C)=O)ccc1-c1nc2ncccc2[nH]1 (centres undefined)
40 | CC(=O)c1ccccc1C(C)=O
56 | OCC#CCO
220 | O=[N+]([O-])c1ccc(-c2nnc3n2NC(c2ccc(Cl)cc2)S3)cc1 (centres undefined)
226 | Cc1cc(O)nc2ccccc12
144 to 145 | NC(=S)Nc1ccc(C(F)(F)F)cc1
160 to 162 | Cc1cc(C)cc(P(c2cc(C)cc(C)c2)c2cc(C)cc(C)c2)c1
30 to 36 | Cc1ccccc1C(=O)Cc1ccccc1C(=O)OC(C)(C)C
170 | S=c1cc(-c2ccccc2)oc(-c2ccccc2)c1
128 to 131 | O=Cc1ccc(-c2ccc(Cl)cc2)o1
124 | CCOc1ccc(Cc2nc(C)cc3cc(OC)c(OC)cc23)cc1OC
171 | CC(C)(C)OC(=O)c1cc2cc3c4c(c2oc1=O)CCCN4CCC3
-136 | FCF
70 | Cc1cc(OCc2ccccc2)ccc1[N+](=O)[O-]
66 to 68 | CCOC(=O)C(Br)CCC(Br)C(=O)OCC (centres undefined)
133 to 135 | N#Cc1cccc(N2CCOCC2)n1
188 | Nc1ccc(Cl)c(C(=O)O)c1
188 | Oc1c(Cl)cc(Cl)cc1Sc1cc(Cl)cc(Cl)c1O
178 to 180 | CC(C)(C)c1cc(C(F)(F)F)n[nH]1
138 to 139 | O=c1c(Cl)c(Cl)cnn1Cc1ccc(Cl)cc1
102 | COc1ccc(SCC(=O)O)cc1OC
195 | CCOC(=O)N1COCc2c1ccc1cc3ccc4c(c3nc21)COCN4C(=O)OCC
72 | CCOC(=O)c1cc(C)n(-c2cc(C)n(C)n2)n1

melting point [°C] | SMILES
250 | Nc1ccc(N=Nc2ccc(N)cc2)cc1
127 to 128 | O=Cc1c(-c2ccccc2)nc2n1CCS2
261 | O=C1NCCN1c1ncc([N+](=O)[O-])s1
129 to 131 | Cc1cccc(Cn2nc(C(C)(C)C)cc2-c2nnc(S)o2)c1
117 | Cc1c(C)c(CCl)c(C)c(CCl)c1C
73 to 75 | Nc1cccc(CN2CCOCC2)c1
3 | CCC(O)CN (centres undefined)
275 | O=C1OC2(c3ccccc31)c1cc([N+](=O)[O-])c(O)c(Br)c1Oc1c2cc([N+](=O)[O-])c(O)c1Br
48 to 57 | CCOC(=O)CCC(=O)OC(C(=O)c1ccccc1)c1ccccc1 (centres undefined)
288 | COC(=O)Nc1nc2ccc(C(=O)c3ccccc3)cc2[nH]1
200 | N/N=C(/C(=O)c1ccc2c3c(cccc13)CC2)c1ccccc1
15.6 | CC(C)(C1CCCCC1)C1CCCCC1
270 to 273 | COc1cc(C=C2C(=O)NC(=N)N2C)ccc1O
-5 | CC(C)(C)SSC(C)(C)C
71 to 75 | CC(C)(C)[N+]([O-])=Cc1ccccc1
87 | N#CCc1cc(Cl)ccc1[N+](=O)[O-]
157 | CN(C)C1=C(C=C(c2ccc(F)cc2)c2ccc(F)cc2)C(=O)N(c2ccccc2)C1=O
73 to 75 | O=C(CCl)Oc1ccc([N+](=O)[O-])cc1
151 | COc1ccc(CNC(=O)c2cc([N+](=O)[O-])cc([N+](=O)[O-])c2)cc1
-15.6 | ClCCI
266 to 268 | NS(=O)(=O)c1ccc(C(=O)O)cc1
61 | CC(C)(C)OC(=O)N1CCC[C@H]1CO
129 to 135 | OC1C(C2COC3(CCCCC3)O2)OC2OC3(CCCCC3)OC21 (centres undefined)

melting point [°C] | SMILES
53 to 54 | O=Cc1ccc2sccc2c1
156 to 157 | CSc1nc2nc(C)cc(C)n2n1
190 | O=C(O)c1ccc(Br)o1
186 | CC12CCC(C(=O)C1)C2(C)C (centres undefined)
203 | NC(=O)C(=O)NC(c1ccccc1)C1(c2ccccc2)OCCO1 (centres undefined)
150 | COc1ccc(-c2onc(C(=O)c3ccco3)c2S(=O)(=O)c2ccccc2)cc1
86 | OC(CCN1CCCC1)(c1ccccc1)C1CCCCC1 (centres undefined)
95 | O=C1OCCC1N(C(=O)C1CC1)c1cccc(Cl)c1 (centres undefined)
68 | CC(C)(CO)C(O)C(=O)NCCCO (racemic)
28 to 30 | NC1CCCCCCCCCCC1
157 to 159 | COc1ccc(C(=O)O)c(O)c1
77.5 | CC(=S)Nc1ccccc1
48 | CCCCCOc1ccc(-c2ccc(C#N)cc2)cc1
140 to 142 | CCCCCCCCOc1ccc(NC(=O)c2ccc(C)cc2)cc1
153 to 154 | O=Cc1ccc(SCc2ccco2)c([N+](=O)[O-])c1
78 to 79 | Cc1nn(C)c(Cl)c1C=O
88 | Fc1cnccc1I
142 | CCOC1=NN(c2ccc([N+](=O)[O-])cc2)C(=O)C1
93 | COc1cccc2cc(C(C)=O)oc12
67.5 | Clc1cc(Cl)c2ccccc2n1

SMILES | melting point [°C]
ClCc1noc(-c2cccs2)n1 | 67 to 68
Cc1cc(C(C)(C)C)ccc1O | 27.5
CNC(=O)Oc1ccc(C)c(C)c1Cl | 124
CCC1CN2CCC1CC2C(O)c1ccnc2ccc(OCCC(C)C)cc12 (centres undefined) | 152
Nc1ncc([N+](=O)[O-])cn1 | 237
CC(=O)OC1CC[C@]2(C)[C@H]3CC[C@]4(C)C(=O)CC[C@H]4[C@@H]3C(=O)C[C@@]2(C)C1 (some centres undefined) | 153 to 157
Cc1ccccc1OP(=O)(Oc1ccccc1C)Oc1ccccc1C | -25
CCCCCBr | -92.7
FCC(F)(F)C(F)F | -82
Cc1o[nH]c(=O)c1CC(N)C(=O)O (racemic) | 240 to 252
N#CO | -86
CN1CCC23C(=O)CC4C(=CCOC5CC(=O)N(c6c(O)cccc62)C3C54)C1 (centres undefined) | 282
Clc1ccccc1-c1ccccc1 | 34
CC(C)(C)CC(C)(C)c1ccc(O)cc1 | 84.5
C=C(C)C1(O)C2OC(=O)C1C1(O)C3OC3C3(CO3)C1(C)C2O (centres undefined) | 225
CCCF | -159
OCC1=CCN2CCC(O)C12 (centres undefined) | 120
